Our source for the IC50 values is patent US10273248B2, “Glucose uptake inhibitors” (Kadmon Corporation LLC, priority 2015, dated 2019).

The IC50 is the concentration that gives 50% inhibition.

Structures can show the parent of a compound that is named as a salt. Some results are limits rather than exact numbers.

For this assay, the system named is glycolysis in HT1080 cells. The assay can be described thus: Glycolysis assay: oligomycin plus compound, cellular ATP by Cell Titer Glo. The format is cell-based. The conditions noted are these: Homo sapiens, HT-1080, 1 h, 10 μM oligomycin, one hour, class symbols. The source says:
Therefore, an assay was developed that utilizes the combination of the glucose uptake inhibitors disclosed herein with oligomycin, a well-characterized inhibitor of ATP synthase. Because oligomycin inhibits ATP derived from oxidative phosphorylation, any remaining ATP production is derived from glycolysis. By reading out cellular ATP levels using the Promega Cell Titer Glo kit, the extent of glycolysis inhibition by the glucose uptake inhibitors disclosed herein can be assessed. […] Utilizing this experimental set-up, the IC50 of glycolysis inhibition for each compound can be determined.
Determination of Glucose Uptake/GLUT Activity (Glycolysis Assay):
HT1080 cells (as well as other cell types) were plated to confluency in 96-well plates. Cells were exposed to the combination of 10 μM Oligomycin (to block mitochondrial-derived ATP) and the glucose uptake inhibitors disclosed herein for one-hour, after which glycolytically-derived ATP was measured with the Cell Titer-Glo assay kit (Promega). Dose-response curves of the glucose uptake inhibitors disclosed herein were used to determine the IC50 for GLUT activity.
For orientation: ATP-based viability assays read luminescence as a measure of living cells.
Turning to `CC(C)NC(=O)COc1cccc(-c2nc(Nc3ccc(-c4cn[nH]c4)cc3)c3c(cnn3C)n2)c1` [Example 58, 2-(3-(7-((4-(1H-pyrazol-4-yl)phenyl)amino)-1-methyl-1H-pyrazolo[4,3-d]pyrimidin-5-yl)phenoxy)-N-isopropylacetamide], the IC50 was greater than 1000 nM. The result for `Cn1ncc2nc(-c3cccc(OCC(=O)NC4CCC4)c3)nc(Nc3ccc(-c4cn[nH]c4)cc3)c21` [Example 59, 2-(3-(7-((4-(1H-pyrazol-4-yl)phenyl)amino)-1-methyl-1H-pyrazolo[4,3-d]pyrimidin-5-yl)phenoxy)-N-cyclobutylacetamide] reads greater than 1000 nM; that for `Cn1ncc2nc(-c3cccc(OCC(=O)NC4CCCC4)c3)nc(Nc3ccc(-c4cn[nH]c4)cc3)c21` [Example 60, 2-(3-(7-((4-(1H-pyrazol-4-yl)phenyl)amino)-1-methyl-1H-pyrazolo[4,3-d]pyrimidin-5-yl)phenoxy)-N-cyclopentylacetamide], 501 to 1000 nM; that for `CC(C)CNC(=O)COc1cccc(-c2nc(Nc3ccc(-c4cn[nH]c4)cc3)c3c(cnn3C)n2)c1` [Example 61, 2-(3-(7-((4-(1H-pyrazol-4-yl)phenyl)amino)-1-methyl-1H-pyrazolo[4,3-d]pyrimidin-5-yl)phenoxy)-N-isobutylacetamide], greater than 1000 nM.

In the case of `CC(C)NC(=O)COc1cccc(-c2nc(Nc3ccc(-c4cn[nH]c4)cc3)c3ccncc3n2)c1` [Example 62, 2-(3-(4-((4-(1H-pyrazol-4-yl)phenyl)amino)pyrido[3,4-d]pyrimidin-2-yl)phenoxy)-N-isopropylacetamide], the IC50 is 10 to 100 nM. Regarding `O=C(COc1cccc(-c2nc(Nc3ccc(-c4cn[nH]c4)cc3)c3ccncc3n2)c1)NC1CCC1` [Example 63, 2-(3-(4-((4-(1H-pyrazol-4-yl)phenyl)amino)pyrido[3,4-d]pyrimidin-2-yl)phenoxy)-N-cyclobutylacetamide], the IC50 was 10 to 100 nM. In the case of `O=C(COc1cccc(-c2nc(Nc3ccc(-c4cn[nH]c4)cc3)c3ccncc3n2)c1)NC1CCCC1` [Example 64, 2-(3-(4-((4-(1H-pyrazol-4-yl)phenyl)amino)pyrido[3,4-d]pyrimidin-2-yl)phenoxy)-N-cyclopentylacetamide], the half-maximal inhibitory concentration (IC50) was 10 to 100 nM.

Take `CC(C)NC(=O)COc1cccc(-c2nc(Nc3ccc(-c4cn[nH]c4)cc3)c3ncsc3n2)c1` [Example 65, 2-(3-(7-((4-(1H-pyrazol-4-yl)phenyl)amino)thiazolo[5,4-d]pyrimidin-5-yl)phenoxy)-N-isopropylacetamide]: the IC50 is 251 to 500 nM. Next, `O=C(COc1cccc(-c2nc(Nc3ccc(-c4cn[nH]c4)cc3)c3ncsc3n2)c1)NC1CCC1` [Example 66, 2-(3-(7-((4-(1H-pyrazol-4-yl)phenyl)amino)thiazolo[5,4-d]pyrimidin-5-yl)phenoxy)-N-cyclobutylacetamide]: 251 to 500 nM; `O=C(COc1cccc(-c2nc(Nc3ccc(-c4cn[nH]c4)cc3)c3ncsc3n2)c1)NC1CCCC1` [Example 67, 2-(3-(7-((4-(1H-pyrazol-4-yl)phenyl)amino)thiazolo[5,4-d]pyrimidin-5-yl)phenoxy)-N-cyclopentylacetamide]: 101 to 250 nM; `CC(C)CNC(=O)COc1cccc(-c2nc(Nc3ccc(-c4cn[nH]c4)cc3)c3ncsc3n2)c1` [Example 68, 2-(3-(7-((4-(1H-pyrazol-4-yl)phenyl)amino)thiazolo[5,4-d]pyrimidin-5-yl)phenoxy)-N-isobutylacetamide]: 251 to 500 nM. Next, `O=C(Nc1cccc(-c2nc3c(c(Nc4ccc(-c5cn[nH]c5)cc4)n2)COC3)c1)c1cncc(Cl)c1` [Example 69, N-(3-(4-((4-(1H-pyrazol-4-yl)phenyl)amino)-5,7-dihydrofuro[3,4-d]pyrimidin-2-yl)phenyl)-5-chloronicotinamide]: 10 to 100 nM; `CC(C)(C)NC(=O)COc1cccc(-c2nc3c(c(Nc4ccc(-c5cn[nH]c5)cc4)n2)COC3)c1` [Example 70, 2-(3-(4-((4-(1H-pyrazol-4-yl)phenyl)amino)-5,7-dihydrofuro[3,4-d]pyrimidin-2-yl)phenoxy)-N-(tert-butyl)acetamide dihydrochloride]: 10 to 100 nM. Next, `Cc1ccc(C(=O)Nc2cccc(-c3nc4c(c(Nc5ccc(-c6cn[nH]c6)cc5)n3)COC4)c2)cn1` [Example 72, N-(3-(4-((4-(1H-pyrazol-4-yl)phenyl)amino)-5,7-dihydrofuro[3,4-d]pyrimidin-2-yl)phenyl)-6-methylnicotinamide]: 10 to 100 nM; `Cc1cncc(C(=O)Nc2cccc(-c3nc4c(c(Nc5ccc(-c6cn[nH]c6)cc5)n3)COC4)c2)c1` [Example 73, N-(3-(4-((4-(1H-pyrazol-4-yl)phenyl)amino)-5,7-dihydrofuro[3,4-d]pyrimidin-2-yl)phenyl)-5-methylnicotinamide]: 10 to 100 nM.

In the case of `Cc1ccncc1C(=O)Nc1cccc(-c2nc3c(c(Nc4ccc(-c5cn[nH]c5)cc4)n2)COC3)c1` [Example 74, N-(3-(4-((4-(1H-pyrazol-4-yl)phenyl)amino)-5,7-dihydrofuro[3,4-d]pyrimidin-2-yl)phenyl)-4-methylnicotinamide], the IC50 is 101 to 250 nM. With `O=C(Nc1cccc(-c2nc3c(c(Nc4ccc(-c5cn[nH]c5)cc4)n2)COC3)c1)c1cncc(F)c1` [Example 75, N-(3-(4-((4-(1H-pyrazol-4-yl)phenyl)amino)-5,7-dihydrofuro[3,4-d]pyrimidin-2-yl)phenyl)-5-fluoronicotinamide], the IC50 was in the range of 10 to 100 nM. Next, `CCC(CC)NC(=O)COc1cccc(-c2nc3c(c(Nc4ccc(-c5cn[nH]c5)cc4)n2)COC3)c1` [Example 76, 2-(3-(4-((4-(1H-pyrazol-4-yl)phenyl)amino)-5,7-dihydrofuro[3,4-d]pyrimidin-2-yl)phenoxy)-N-(pentan-3-yl)acetamide dihydrochloride]: 10 to 100 nM; `CCC(C)NC(=O)COc1cccc(-c2nc3c(c(Nc4ccc(-c5cn[nH]c5)cc4)n2)COC3)c1` (centres unmarked) [Example 77, 2-(3-(4-((4-(1H-pyrazol-4-yl)phenyl)amino)-5,7-dihydrofuro[3,4-d]pyrimidin-2-yl)phenoxy)-N-(sec-butyl)acetamide]: 10 to 100 nM. The result for `CC(C)CNC(=O)COc1cccc(-c2nc3c(c(Nc4ccc(-c5cn[nH]c5)cc4)n2)COC3)c1` [Example 78, 2-(3-(4-((4-(1H-pyrazol-4-yl)phenyl)amino)-5,7-dihydrofuro[3,4-d]pyrimidin-2-yl)phenoxy)-N-isobutylacetamide] reads 10 to 100 nM; that for `CC(C)(C)CNC(=O)COc1cccc(-c2nc3c(c(Nc4ccc(-c5cn[nH]c5)cc4)n2)COC3)c1` [Example 79, 2-(3-(4-((4-(1H-pyrazol-4-yl)phenyl)amino)-5,7-dihydrofuro[3,4-d]pyrimidin-2-yl)phenoxy)-N-neopentylacetamide], 10 to 100 nM. On to `COc1cncc(C(=O)Nc2cccc(-c3nc4c(c(Nc5ccc(-c6cn[nH]c6)cc5)n3)COC4)c2)c1` [Example 80, N-(3-(4-((4-(1H-pyrazol-4-yl)phenyl)amino)-5,7-dihydrofuro[3,4-d]pyrimidin-2-yl)phenyl)-5-methoxynicotinamide], for which the IC50 lay in the range of 10 to 100 nM. On to `O=C(COc1cccc(-c2nc3c(c(Nc4ccc(-c5cn[nH]c5)cc4)n2)COC3)c1)NC1CC(F)(F)C1` [Example 82, 2-(3-(4-((4-(1H-pyrazol-4-yl)phenyl)amino)-5,7-dihydrofuro[3,4-d]pyrimidin-2-yl)phenoxy)-N-(3,3-difluorocyclobutyl)acetamide], for which the half-inhibitory concentration (IC50) is 101 to 250 nM. Consider `CC(C)NC(=O)COc1cccc(-c2nc3c(c(Nc4ccc(-c5cn[nH]c5)cc4)n2)CSC3)c1` [Example 84, 2-(3-(4-((4-(1H-pyrazol-4-yl)phenyl)amino)-5,7-dihydrothieno[3,4-d]pyrimidin-2-yl)phenoxy)-N-isopropylacetamide], for which the IC50 was in the range of 251 to 500 nM. With `O=C(COc1cccc(-c2nc3c(c(Nc4ccc(-c5cn[nH]c5)cc4)n2)CSC3)c1)NC1CCC1` [Example 86, 2-(3-(4-((4-(1H-pyrazol-4-yl)phenyl)amino)-5,7-dihydrothieno[3,4-d]pyrimidin-2-yl)phenoxy)-N-cyclobutylacetamide], the IC50 is 101 to 250 nM. With `O=C(COc1cccc(-c2nc3c(c(Nc4ccc(-c5cn[nH]c5)cc4)n2)CSC3)c1)NC1CCCC1` [Example 87, 2-(3-(4-((4-(1H-pyrazol-4-yl)phenyl)amino)-5,7-dihydrothieno[3,4-d]pyrimidin-2-yl)phenoxy)-N-cyclopentylacetamide], the IC50 lay in the range of 101 to 250 nM. The result for `CCC(CC)NC(=O)COc1cc(F)cc(-c2nc3c(c(Nc4ccc(-c5cn[nH]c5)cc4)n2)COC3)c1` [Example 88, 2-(3-(4-((4-(1H-pyrazol-4-yl)phenyl)amino)-5,7-dihydrofuro[3,4-d]pyrimidin-2-yl)-5-fluorophenoxy)-N-(pentan-3-yl)acetamide] reads 501 to 1000 nM. Next, `O=C(COc1cccc(-c2nc3c(c(Nc4ccc(-c5cn[nH]c5)cc4)n2)COC3)c1)NC1CCCCC1` [Example 89, 2-(3-(4-((4-(1H-pyrazol-4-yl)phenyl)amino)-5,7-dihydrofuro[3,4-d]pyrimidin-2-yl)phenoxy)-N-cyclohexylacetamide]: 10 to 100 nM; `CC(NC(=O)COc1cccc(-c2nc3c(c(Nc4ccc(-c5cn[nH]c5)cc4)n2)COC3)c1)C(F)(F)F` (centres unmarked) [Example 90, 2-(3-(4-((4-(1H-pyrazol-4-yl)phenyl)amino)-5,7-dihydrofuro[3,4-d]pyrimidin-2-yl)phenoxy)-N-(1,1,1-trifluoropropan-2-yl)acetamide]: 10 to 100 nM.
